Laboratory results: patent publication US20210094922A1, “Dyes for Analysis of Soluble Protein Aggregates or Misfolded Protein Oligomers” (The Penn State Research Foundation, priority 2018, published 2021)

Assays:
[1] = Photophysical parameters of fluorophores in glycerol; type: physicochemical
Method: FP analogues (20 μM) were prepared in glycerol:H2O mixture with increasing glycerol concentrations. In addition, fluorescence intensity in 1,4-dioxane was measured to evaluate their response to polarity. Fluorescence measurement was carried out using a Tecan infinite M1000Pro fluorescence microplate reader at excitation and emission wavelengths as indicated. All readings were normalized against the fluorescence intensity in 100% glycerol as 1. Error bars: standard error (n=3).
FP analogues (20 μM) were prepared in glycerol. Spectra were collected with emission wavelength of 420 nm for 1, 525 nm for 2, 620 nm for 3, 3a and 3b. All measurements were carried out using a Tecan infinite M1000Pro fluorescence microplate reader.
FP analogues (20 μM) were prepared in glycerol. Spectra were collected with excitation wavelength of 370 nm for 1, 455 nm for 2, 530 nm for 3 and 3b, 485 nm for 3a. All measurements were carried out using a Tecan infinite M1000Pro fluorescence microplate reader.
FP analogues (10 μM) were prepared in glycerol. Spectra were collected with 10 mm quartz cuvette. All measurements were carried out using Agilent 300 UV-Vis spectrophotometer.
However, the quantum yield (QY, Φ=0.001 for 1 and Φ=0.027 for 2 in glycerol, Table 2) was much lower than that of a GFP (Φ=0.79).

[2] = biological target: T1, (UniProt P0A3G2+P42858, A155T/A167V/A172T/A224E/C128F/C176G/D78G/DEL18-38/E160K/E257K/H272N/K175M/K195N/L47V/L88M/N227D/S58T/T264A/Y273L/Y87F); assay: AggTag imaging of Htt-Halo aggregation in HEK293T cells; type: cell-based, human; conditions: non-aggregating control
T1 construct: using the Huntingtin exon 1 protein (Htt) with expansion of a polyglutamine tract within its N-terminal domain; expressed in transfected cells; host or cells: HEK293T
T1 sequence (P42858+P0A3G2 fused with the stated changes): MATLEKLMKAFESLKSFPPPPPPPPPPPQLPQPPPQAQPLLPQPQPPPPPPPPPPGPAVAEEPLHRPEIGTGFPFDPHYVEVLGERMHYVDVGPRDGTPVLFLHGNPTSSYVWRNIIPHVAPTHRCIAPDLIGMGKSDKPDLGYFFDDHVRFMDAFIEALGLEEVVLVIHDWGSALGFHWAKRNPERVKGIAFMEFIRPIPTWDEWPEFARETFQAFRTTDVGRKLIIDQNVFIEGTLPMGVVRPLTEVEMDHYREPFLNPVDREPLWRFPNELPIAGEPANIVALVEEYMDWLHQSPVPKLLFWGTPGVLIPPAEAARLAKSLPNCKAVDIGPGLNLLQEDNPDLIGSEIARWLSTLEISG
Method: (§1) (a) The dual-probe live cell imaging experiment. Halo-tag fusion proteins were labeled in the presence of both the non-fluorogenic coumarin ligand (1 μM) and 4 (1 µM). The newly synthesized Htt-Halo proteins were equally labeled with either the coumarin ligand or 4. The coumarin ligand is fluorescent both before and after aggregation of Htt-Halo. By contrast, signal of 4 exclusively arises from Htt-Halo aggregates. (b) Dual probes labeling confirms expression of proteins. The Htt Q0-Halo and Htt Q97-Halo proteins were transiently transfected and expressed in HEK293T cells for 24 h, in the presence of 1 μM coumarin Halo-Tag ligand and 1 μM of 4. In cells expressing Htt Q97-Halo proteins, punctate structures in the coumarin channel coincided with the turn-on fluorescence of 4. […] (c) The Htt Q97 protein, without a Halo-Tag, was transiently transfected and expressed in HEK293T cells for 24 h, in the presence of 1 μM of 4. No turn-on fluorescence of 4 was found. Red: fluorescence from the SOD1(V31A)-Halo-4 conjugate. Blue: coumarin Halo-Tag ligand in (a) or nucleus stained by Hoechst 33342 in (b). Scale bar: 10 μm. (d) Fluorescent intensity of cell lysates from samples as represented in FIG. 4d. Error bars: standard error (n=3).
(§2) Confocal microscope imaging. The HEK293T cells were seeded at 25% confluency 24 h prior to transfection in poly-D-lysine coated 35 mm glass bottom dishes (MatTek Corporation). Cells were grown in DMEM media supplemented with 10% FBS and Penicillin-Streptomycin antibiotics until they reached 50-60% confluency. Transfection was carried out using X-tremeGene™ 9 DNA transfection reagent (Roche) according to the manufacturer's instructions. Proteins were expressed for 24 h prior to analyses. To label proteins with Halo-Tag fusion, protein expression was carried out in the presence of 1 μM 4 or 1 μM TMR Halo-Tag ligand to form covalent conjugate with the Halo-Tag domain. For a dual-probe labeling scheme, 1 μM 4 and 1 μM coumarin Halo-Tag ligand to simultaneously form covalent conjugate with the Halo-Tag domain.
(§3) To wash off unbound Halo ligands, the cells were washed extensively by replacing media with fresh DMEM and incubating for 30 min at 37° C. For confocal fluorescence imaging with either 4-labeled Halo fusion, TMR-labeled Halo fusion, EGFP fusion, or mCherry fusion proteins, DMEM media was replaced with FluoroBrite™ DMEM media (ThermoFisher) supplemented with 10% FBS, and Hoechst 33342 (0.1 μg/mL). For confocal fluorescence imaging with either dual-probe labeled Halo fusion with 4 and coumarin ligand, DMEM media was replaced with FluoroBrite™ DMEM media (ThermoFisher) supplemented with 10% FBS. The samples were incubated for 30 min prior to imaging. Media was replaced with fresh FluoroBrite™ DMEM media (ThermoFisher) supplemented with 10% FBS prior to imaging. Confocal images were obtained using Olympus FluoView™ FV1000 confocal microscope. The EGFP fluorescence was visualized using blue argon (488 nm) laser. Nuclear staining and coumarin fluorescence was visualized using violet laser (405 nm). Fluorescence of TMR and 4 were visualized using green HeNe laser (543 nm).

[3] = biological target: T2, Htt-97Q-Halo (Homo sapiens, UniProt P42858); assay: as above; type: cell-based; conditions: non-specific binding control
T2 construct: using the Huntingtin exon 1 protein (Htt) with expansion of a polyglutamine tract within its N-terminal domain; expressed in transfected cells; host or cells: HEK293T
T2 sequence (P42858 with tags, fused parts or gaps): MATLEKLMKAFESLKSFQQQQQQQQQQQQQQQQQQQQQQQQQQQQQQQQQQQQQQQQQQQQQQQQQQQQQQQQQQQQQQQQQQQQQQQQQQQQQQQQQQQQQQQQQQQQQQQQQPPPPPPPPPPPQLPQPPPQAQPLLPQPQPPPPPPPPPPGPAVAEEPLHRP
Method: as §1, §2, §3

[4] = test system: Htt-97Q-Halo; assay: as above; type: cell-based, human; conditions: control
Method: as §1, §2, §3

[5] = biological target: T3, Htt-97Q-Halo (UniProt P0A3G2+P42858, A155T/A167V/A172T/A224E/C128F/C176G/D78G/E160K/E257K/H272N/K175M/K195N/L47V/L88M/N227D/S58T/T264A/Y273L/Y87F); assay: as above; type: cell-based, human
T3 construct: using the Huntingtin exon 1 protein (Htt) with expansion of a polyglutamine tract within its N-terminal domain; expressed in transfected cells; host or cells: HEK293T
T3 sequence (P42858+P0A3G2 fused with the stated changes): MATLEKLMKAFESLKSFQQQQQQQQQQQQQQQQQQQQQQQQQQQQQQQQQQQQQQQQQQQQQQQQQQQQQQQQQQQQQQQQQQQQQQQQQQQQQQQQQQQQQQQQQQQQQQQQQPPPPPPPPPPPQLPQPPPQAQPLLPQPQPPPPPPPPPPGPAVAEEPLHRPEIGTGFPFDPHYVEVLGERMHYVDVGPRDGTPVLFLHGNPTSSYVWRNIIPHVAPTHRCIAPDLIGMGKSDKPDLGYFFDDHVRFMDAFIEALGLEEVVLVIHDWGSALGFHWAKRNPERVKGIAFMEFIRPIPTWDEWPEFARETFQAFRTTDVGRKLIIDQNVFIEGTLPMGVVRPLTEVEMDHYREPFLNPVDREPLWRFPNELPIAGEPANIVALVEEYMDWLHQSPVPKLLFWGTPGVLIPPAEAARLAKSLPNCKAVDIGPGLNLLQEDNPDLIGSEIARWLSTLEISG
Method: as §1, §2, §3

[6] = biological target: T4, Htt-110Q-Halo (Homo sapiens, UniProt P42858); assay: Two-color imaging of Htt-110Q-Halo in HEK293T cells; type: cell-based
T4 construct: using the Huntingtin exon 1 protein (Htt) with expansion of a polyglutamine tract within its N-terminal domain; expressed in transfected cells; host or cells: HEK293T
T4 sequence (P42858 with tags, fused parts or gaps): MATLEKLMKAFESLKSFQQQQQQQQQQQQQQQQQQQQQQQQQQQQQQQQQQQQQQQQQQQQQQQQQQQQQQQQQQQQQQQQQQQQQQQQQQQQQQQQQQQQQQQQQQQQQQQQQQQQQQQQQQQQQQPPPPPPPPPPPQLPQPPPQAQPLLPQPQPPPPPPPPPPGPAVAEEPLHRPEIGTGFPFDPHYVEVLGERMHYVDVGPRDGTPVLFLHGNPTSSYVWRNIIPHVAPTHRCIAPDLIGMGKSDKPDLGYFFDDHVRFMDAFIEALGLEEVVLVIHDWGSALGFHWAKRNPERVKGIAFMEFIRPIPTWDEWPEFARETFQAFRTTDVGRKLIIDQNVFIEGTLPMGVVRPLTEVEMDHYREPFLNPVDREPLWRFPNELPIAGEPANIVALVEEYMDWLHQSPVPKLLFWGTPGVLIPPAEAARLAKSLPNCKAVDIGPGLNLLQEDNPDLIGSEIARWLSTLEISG
Source text: (§4) (B-C) Excitation and emission spectra of 4 (with misfolded oligomers of SOD1-A4V-Halo) and 5 (with insoluble aggregates of SOD1-A4V-Halo).
(§5) Combination of 4 and 5 enables a two-color imaging strategy to differentiate insoluble aggregates from soluble oligomers. The inventors carried out live cell imaging experiments, wherein 4 or 5 was used to visualize aggregation of POI-Halo fusion proteins in HEK293T cells. […] To this end, the inventors labeled HEK293T cells expressing SOD1-A4V-Halo simultaneously with 4 and 5 (both at 0.5 μM) for 24 h and treated cells with 5 μM MG132 for 8 h. […] The inventors further carried out experiments using Htt-PolyQ with 110 glutamine repeats (Htt-110Q-Halo).

[7] = biological target: SOD1-A4V-Halo (Homo sapiens, UniProt P00441, A5V); assay: Two-color imaging of SOD1-A4V-Halo in HEK293T cells under MG132; type: cell-based; design: expressed in transfected cells; host or cells: HEK293T; conditions: 4 and 5 both at 0.5 μM, 5 μM MG132 for 8 h
SOD1-A4V-Halo, sequence (P00441 with tags, fused parts or gaps A5V limits assumed): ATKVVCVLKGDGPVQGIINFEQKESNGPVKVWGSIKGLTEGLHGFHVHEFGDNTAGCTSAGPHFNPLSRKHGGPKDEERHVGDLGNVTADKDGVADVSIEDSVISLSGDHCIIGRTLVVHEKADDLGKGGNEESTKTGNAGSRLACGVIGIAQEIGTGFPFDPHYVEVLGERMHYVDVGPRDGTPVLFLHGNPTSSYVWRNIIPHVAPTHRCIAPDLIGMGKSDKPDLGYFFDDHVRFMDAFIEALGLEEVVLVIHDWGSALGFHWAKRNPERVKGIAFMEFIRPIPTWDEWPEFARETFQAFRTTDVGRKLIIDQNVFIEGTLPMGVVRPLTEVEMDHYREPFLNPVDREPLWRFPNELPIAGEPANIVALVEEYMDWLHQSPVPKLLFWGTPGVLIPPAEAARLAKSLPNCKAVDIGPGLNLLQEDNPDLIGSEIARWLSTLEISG
Source text: as §4, §5

**Q.** Which results are given for `CN(C)c1ccc(/C=C2N=C(/C=C/c3ccc(N(CCO)CCO)cc3)N(CC(=O)N[C@H]3CC[C@H](C(=O)NCCOCCOCCCCCCCl)CC3)C\2=O)cc1` [Compound 4, (1r,4r)-4-(2-((Z)-2-((E)-4-(bis(2-hydroxyethyl)amino)styryl)-4-(4-(dimethylamino)benzylidene)-5-oxo-4,5-dihydro-1H-imidazol-1-yl)acetamido)-N-(2-(2-((6-chlorohexyl)oxy)ethoxy)ethyl)cyclohexanecarboxamide]?
**A.** fluorescent properties of 4 compared with 3 [1]: identical to 3; B (brightness) ([1]; calculated using B = Φϵ): 8,734 M^−1cm^−1; Φ (quantum yield) ([1]; in glycerol): 0.230; λem ([1]; in glycerol): 628 nm; λex ([1]; in glycerol): 530 nm; λabs ([1]; maximum absorbance measured in glycerol): 534 nm; ϵ (extinction coefficient) ([1]; measured in glycerol): 36,241 M^−1cm^−1; fluorescence in cells expressing Htt-0Q-Halo [2]: dark background; fluorescence in cells expressing Htt-97Q without Halo-Tag [3]: no fluorescent signal; fluorescence in cells co-expressing Htt-Q97-GFP and Halo-Tag or just expressing Htt-Q97 [4]: showed no fluorescence of 4; turn-on fluorescence in cells expressing Htt-97Q-Halo [5]: observed as puncta without any background diffuse fluorescence; origin of Htt-97Q-Halo fluorescence after fractionation of lysate ([5]; cell lysate): primarily originated from the insoluble fraction; fluorescence of Htt-110Q-Halo inclusions [6]: exhibit fluorescence from both 4 and 5; fluorescence of perinuclear SOD1 A4V-Halo granules [7]: only exhibited red fluorescence from 4
